How the values were obtained:
chymotrypsin = chymotrypsin (Bos taurus, UniProt P00766); assay: in vitro; settings: isolated enzyme chymotrypsin, pH 7.8, Remaining peak area (%)/chymotrypsin
How it was run: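 Peptide and 0.05 μg/μL chymotrypsin were preincubated at 37 °C for 5 min, then mixed. Aliquots taken from 1.5 up to 60.0 min were quenched with 10% TFA, and remaining peptide was measured as RP-HPLC peak area.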

NEP24.11 = NEP24.11 (Homo sapiens, UniProt P08473); assay: Tolerance of GLP-1 and its analogues to NEP24.11 (RP-HPLC remaining peak area); format: in vitro ADME; settings: peptide 30 μM, NEP24.11 1.0 ng/μL, 37° C.
Sequence of NEP24.11 (P08473 whole entry): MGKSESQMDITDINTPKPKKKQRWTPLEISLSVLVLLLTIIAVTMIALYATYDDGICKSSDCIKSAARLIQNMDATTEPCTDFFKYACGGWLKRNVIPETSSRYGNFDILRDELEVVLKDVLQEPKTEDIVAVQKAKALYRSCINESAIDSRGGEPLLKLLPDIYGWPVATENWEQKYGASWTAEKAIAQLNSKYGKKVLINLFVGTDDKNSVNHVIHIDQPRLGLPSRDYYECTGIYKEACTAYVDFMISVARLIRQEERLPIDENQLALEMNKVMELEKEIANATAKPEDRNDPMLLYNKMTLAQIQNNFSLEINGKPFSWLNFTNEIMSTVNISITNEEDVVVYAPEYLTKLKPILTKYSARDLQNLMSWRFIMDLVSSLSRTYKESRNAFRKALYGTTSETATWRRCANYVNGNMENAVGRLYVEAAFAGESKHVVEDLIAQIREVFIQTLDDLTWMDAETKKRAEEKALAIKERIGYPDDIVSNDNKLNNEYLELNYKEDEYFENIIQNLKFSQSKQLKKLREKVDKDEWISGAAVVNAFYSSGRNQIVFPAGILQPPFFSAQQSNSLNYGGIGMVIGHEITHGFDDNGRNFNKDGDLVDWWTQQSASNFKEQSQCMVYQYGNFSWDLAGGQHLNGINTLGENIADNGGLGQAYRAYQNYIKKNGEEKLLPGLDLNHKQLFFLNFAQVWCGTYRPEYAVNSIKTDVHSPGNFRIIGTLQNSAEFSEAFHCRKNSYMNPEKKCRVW
Method: (§1) Mix by centrifugation at 8000 rpm for 30 seconds.
Arrange a certain volume of 0.04 μg/μL NEP24.11 enzyme solution in another sterile EP.

DPP-IV = DPP-IV (Homo sapiens, UniProt P27487); assay: Tolerance of GLP-1 and its analogues to DPP-IV (RP-HPLC remaining peak area); format: in vitro ADME; settings: peptide 25 μM, DPP-IV 0.5 ng/μL, 37° C.
Sequence of DPP-IV (P27487 whole entry, species assumed): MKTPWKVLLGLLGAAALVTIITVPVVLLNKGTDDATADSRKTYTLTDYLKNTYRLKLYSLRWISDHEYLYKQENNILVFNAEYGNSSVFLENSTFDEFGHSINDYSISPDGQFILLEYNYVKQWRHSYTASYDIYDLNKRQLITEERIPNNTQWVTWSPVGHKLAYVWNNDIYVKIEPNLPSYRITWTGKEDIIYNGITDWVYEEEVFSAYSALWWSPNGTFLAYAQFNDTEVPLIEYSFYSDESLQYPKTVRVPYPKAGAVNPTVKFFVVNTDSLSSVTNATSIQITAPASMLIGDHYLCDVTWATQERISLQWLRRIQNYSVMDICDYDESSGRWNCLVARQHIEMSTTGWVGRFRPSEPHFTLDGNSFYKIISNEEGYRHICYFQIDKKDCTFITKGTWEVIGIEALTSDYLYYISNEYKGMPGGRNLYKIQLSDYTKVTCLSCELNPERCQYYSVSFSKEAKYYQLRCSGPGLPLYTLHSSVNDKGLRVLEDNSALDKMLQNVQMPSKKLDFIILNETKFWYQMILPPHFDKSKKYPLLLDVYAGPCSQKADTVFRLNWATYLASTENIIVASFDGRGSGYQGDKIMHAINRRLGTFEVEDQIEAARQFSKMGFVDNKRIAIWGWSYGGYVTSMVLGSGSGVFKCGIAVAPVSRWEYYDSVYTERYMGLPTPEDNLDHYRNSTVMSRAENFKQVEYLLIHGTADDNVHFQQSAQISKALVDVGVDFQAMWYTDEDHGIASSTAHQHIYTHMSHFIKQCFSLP
Method: as §1
(2) Arrange a certain volume of 0.005 μg/μL DPP-IV solution in another sterile EP.

trypsin = molecular target: T1, trypsin (Bos taurus, UniProt P00760); assay: in vitro; settings: isolated enzyme trypsin, pH 7.8
T1 sequence (P00760 24-246): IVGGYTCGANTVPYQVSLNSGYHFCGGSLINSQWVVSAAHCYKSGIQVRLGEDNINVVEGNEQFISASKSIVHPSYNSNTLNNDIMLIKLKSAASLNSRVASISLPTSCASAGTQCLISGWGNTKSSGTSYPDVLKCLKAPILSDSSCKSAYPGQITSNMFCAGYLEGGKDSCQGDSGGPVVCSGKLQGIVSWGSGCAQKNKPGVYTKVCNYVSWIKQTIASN
Method: FIG. 17. […] At different time point, 25 μL aliquots was taken out, and 10% (v/v) TFA was added to terminate the reaction.
as §1
(§2) Arrange a certain volume of 0.05 μg/μL trypsin solution in another sterile EP. Incubate the EP tubes containing peptides and enzymes at 37° C. for 5 min, and separately add 6 μL of trypsin solution to each EP tube containing peptides and mix well. Start timing and extract 25 μL of reaction solution at 1.5, 3.0, 4.5, 6.0 and 9.0 min later, respectively. Add 3.75 μL of 10% TFA to terminate the reaction and mix well by centrifugation at 8000 rpm for 30 seconds.
as §2, with “and” for “and separately”, “9” for “6”, “6.0, 9.0, 15.0, 30.0,” for “6.0”, “60.0” for “9.0”
Referring to the experimental method in Example 5, in vitro stability of salmon Calcitonin analogs with oral administration activity to the enzymatic hydrolysis by trypsin, chymotrypsin and elastase were performed.
Referring to the experimental method in Example 5, in vitro stability of IL-17A inhibitory peptides towards the enzymatic hydrolysis by trypsin, chymotrypsin and elastase were performed.

CC[C@H](C)[C@H](NC(=O)[C@H](Cc1ccccc1)NC(=O)[C@H](CCC(=O)O)NC(=O)[C@H](CCCCN)NC(=O)[C@H](C)NC(=O)[C@H](C)NC(=O)[C@H](CCC(N)=O)NC(=O)CNC(=O)[C@H](CCC(=O)O)NC(=O)[C@H](CC(C)C)NC(=O)[C@H](Cc1ccc(O)cc1)NC(=O)[C@H](CO)NC(=O)[C@H](CO)NC(=O)[C@@H](NC(=O)[C@H](CC(=O)O)NC(=O)[C@H](CO)NC(=O)[C@@H](NC(=O)[C@H](Cc1ccccc1)NC(=O)[C@@H](NC(=O)CNC(=O)[C@H](CCC(=O)O)NC(=O)[C@H](C)NC(=O)[C@H](Cc1c[nH]cn1)NC(=O)CNC(=O)CNC(=O)[C@H](CCCNC(=N)N)NC(=O)[C@H](CO)NC(=O)[C@H](Cc1ccccc1)NC(=O)[C@H](CCCNC(=N)N)NC(=O)[C@H](CCC(N)=O)NC(=O)CNC(=O)CNC(=O)[C@@H]1CCCN1C(=O)[C@H](Cc1ccccc1)NC(=O)[C@@H]1CSSC[C@H](NC(=O)[C@H](CCCNC(=N)N)NC(=O)CN)C(=O)N[C@@H]([C@@H](C)O)C(=O)N[C@@H](CCCCN)C(=O)N[C@@H](CO)C(=O)N[C@@H]([C@@H](C)CC)C(=O)N2CCC[C@H]2C(=O)N2CCC[C@H]2C(=O)N[C@@H]([C@@H](C)CC)C(=O)N1)[C@@H](C)O)[C@@H](C)O)C(C)C)C(=O)N[C@@H](C)C(=O)N[C@@H](Cc1c[nH]c2ccccc12)C(=O)N[C@@H](CC(C)C)C(=O)N[C@H](C(=O)N[C@@H](CCCCN)C(=O)NCC(=O)N[C@@H](CCCNC(=N)N)C(=O)NCC(=O)NCC(=O)N[C@@H](CCCCN)C(=O)O)C(C)C [BT1-N-GLP-1]
remaining at 0.025 h, 60 μM (chymotrypsin): 69 ± 4.4%
remaining at 0.05 h, 60 μM (chymotrypsin): 58.1 ± 4.9%
remaining at 0.075 h, 60 μM (chymotrypsin): 53.2%
remaining at 0.1 h, 60 μM (chymotrypsin): 23.1 ± 0.9%
remaining at 0.15 h, 60 μM (chymotrypsin): 23.5 ± 0.2%
Remaining peak area (%)/NEP24.11 (NEP24.11; 0.0 h): 100.0 ± 0.0%
remaining at 0.5 h, 30 μM (NEP24.11; isolated NEP24.11 enzyme in buffer, pH 7.4, 0.5 h): 90.8 ± 7.1%
remaining at 2 h, 30 μM (NEP24.11; isolated NEP24.11 enzyme in buffer, pH 7.4, 2.0 h): 78.8 ± 8%
remaining at 4 h, 30 μM (NEP24.11; isolated NEP24.11 enzyme in buffer, pH 7.4, 4.0 h): 77.8 ± 4.3%
remaining at 8 h, 30 μM (NEP24.11; isolated NEP24.11 enzyme in buffer, pH 7.4, 8.0 h, read-out: Remaining peak area (%)/NEP24.11): 71.7 ± 4.9%
Remaining peak area (%)/DPP-IV (DPP-IV; 0.0 h): 100.0 ± 0.0%
remaining at 0.5 h, 25 μM (DPP-IV; isolated DPP-IV enzyme in buffer, pH 8, 0.5 h): 88.9 ± 0.8%
remaining at 2 h, 25 μM (DPP-IV; isolated DPP-IV enzyme in buffer, pH 8, 2.0 h): 87 ± 2.7%
remaining at 4 h, 25 μM (DPP-IV; isolated DPP-IV enzyme in buffer, pH 8, 4.0 h): 85.8 ± 1.8%
remaining at 8 h, 25 μM (DPP-IV; isolated DPP-IV enzyme in buffer, pH 8, 8.0 h): 87.3 ± 2%
remaining at 12 h, 25 μM (DPP-IV; isolated DPP-IV enzyme in buffer, pH 8, 12.0 h): 84.8 ± 1.6%
remaining at 0.025 h, 60 μM (trypsin): 90.9 ± 3.6%
remaining at 0.05 h, 60 μM (trypsin): 96.4 ± 4.9%
remaining at 0.075 h, 60 μM (trypsin): 91.4 ± 3.2%
remaining at 0.1 h, 60 μM (trypsin): 93.2 ± 7%
remaining at 0.15 h, 60 μM (trypsin): 88.8 ± 4%
remaining at 0.25 h, 60 μM (trypsin): 90 ± 4.4%
remaining at 0.5 h, 60 μM (trypsin): 91 ± 6.6%
remaining at 1 h, 60 μM (trypsin): 88.9 ± 3%

Reference: patent US20230416329A1, “A PEPTIDE WITH DISULFIDE BONDS AND INHIBITORY ACTIVITY AGAINST SERINE PROTEASES, DERIVED HYBRID PEPTIDES THEREOF, AND USES THEREOF” (INSTITUTE OF MATERIA MEDICA , CHINESE ACADEMY OF MEDICAL …, priority 2020, published 2023)
